Experimental data as given in patent US20080226719A1, “Combination of Rosiglitazone and Donepezil for Improvement of Cognitive Function” (priority 2005, published 2008).

Experiments:
Assay type in all cases: in vivo, human
[1] = tested on: Alzheimer's patients; experiment: CIBIC+ in patients with mild to moderate AD, 24 week placebo-controlled study (Example 2); conditions: Table 13A updated analysis, 2 APOE4 copies, 24 weeks
Experimental: (§1) Analysis for the full intent to treat (ITT) population was performed on 511 subjects who were randomly allocated into one of four specific treatment regimes. Genotyping analysis was performed on 63% (323/511) of the ITT population.
(§2) Patient population included Caucasian males and females between 50-85 years of age who had been diagnosed with mild to moderate AD, were not receiving any medications which could adversely prejudice the study (e.g. PPAR-gamma agonists or conventional AD medicaments) or had any other potentially prejudicial ailments (e.g. diabetes or major psychiatric disorders).
(§3) Patients received either placebo or one of three dosage levels of extended release rosiglitazone provided once daily (2 mg, 4 mg and 8 mg tablets as described in Example 1). Patients were examined using the cognitive Alzheimer's Disease Assessment Scale (ADAS-cog; for further information see Rosen W G et al. Am. J. Psychiatry. 1984 141:1356-1364) and the Clinician's Interview-Based Impression of Change with caregiver information (CIBIC+; for further information see Knopman D S et al. Neurology 1994 44: 2315-2321); and secondary assessments were performed using: the Disability Assessment for Dementia (DAD, for further information see Gelinas L et al. Am J Occup Ther 1999 53: 471-81) and the Neuropsychiatric Inventory test (NPI, for further information see Cummings et al (1994) Neurology 44, 2308-2314) at the start of the study (baseline) and during the course of the study (after 8, 16 and 24 weeks of treatment).
(§4) APOE genotype was determined using the TaqMan PCR-based method of McLeod et al 2001 infra.
(§5) All statistics reflect last observed assessment carried forward (LOCF) measurements.
Higher CIBIC+ scores indicate a greater level of decline with scores below 4 denoting clinical improvement and scores above 4 denoting clinical decline.

[2] = tested on: Alzheimer's patients; experiment: Disability Assessment for Dementia (DAD), Example 2 study; conditions: week 24
Experimental: as §3
Similar results were identified using the Disability Assessment for Dementia (DAD) test (Gelinas L et al. Am J Occup Ther 1999 53: 471-81). A prospectively defined test for interaction between APOE4 carriage status and DAD scores at week 24 was significant (P=0.006).

[3] = tested on: Alzheimer's patients; experiment: ADAS-cog in patients with mild to moderate AD, 24 week placebo-controlled study (Example 2); conditions: for ADAS-cog Treatment Difference (95% confidence limits) Rosi − Placebo / ADAS-cog model adjusted change from baseline, LSMean (SE): ITT population, LOCF; for ADAS-cog Treatment Difference (95% confidence limits) Rosi − Placebo / ADAS-cog model adjusted change from baseline, LSMean (SE) / ADAS-cog Treatment Difference (90% confidence limits) Rosi − Placebo / ADAS-cog model-adjusted change from baseline, LSMean (SE): 24 weeks; for ADAS-cog Treatment Difference (90% confidence limits) Rosi − Placebo / ADAS-cog model-adjusted change from baseline, LSMean (SE): PGx ITT population
Experimental: as §1, §2, §3, §4, §5
It should be noted that in the case of ADAS-cog higher scores indicate reduced cognitive function.

[4] = tested on: Alzheimer's patients; experiment: Neuropsychiatric Inventory (NPI), Example 2 study; conditions: week 24
Experimental: as §3
Similar results were identified using the Neuropsychiatric Inventory (NPI) test (Cummings et al (1994) Neurology 44, 2308-2314). A prospectively defined test for interaction between APOE4 carriage status and NPI scores at week 24 was significant ([…]).

CN(CCOc1ccc(CC2SC(=O)NC2=O)cc1)c1ccccn1 (stereo not drawn) [Rosi, 5-[4-[2-(N-methyl-N-(2-pyridyl)amino)ethoxy]benzyl]thiazolidine-2,4-dione]
CIBIC+ Treatment Difference (90% confidence limits) Rosi − Placebo ([1]; 2 mg): −0.91 (−2.19, 0.36) | CIBIC+ Treatment Difference (90% confidence limits) Rosi − Placebo ([1]; 4 mg): −0.45 (−1.59, 0.70) | CIBIC+ Treatment Difference (90% confidence limits) Rosi − Placebo ([1]; 8 mg): −0.09 (−1.09, 0.92) | DAD scores, pattern of results ([2]; APOE4+ subjects): demonstrated no improvement | DAD scores, pattern of results ([2]; APOE4− subjects): demonstrated improvement on DAD | ADAS-cog change from baseline, cognitive function (FIG. 2) ([3]; APOE4+ individuals, 2 mg, 4 mg or 8 mg, after 8 weeks): slight improvement | ADAS-cog change from baseline, cognitive function (FIG. 2) ([3]; APOE4+ individuals, 2 mg, after 16 weeks): a greater decline than the placebo | ADAS-cog change from baseline, cognitive function (FIG. 2) ([3]; APOE4+ individuals, 4 mg and 8 mg, after 16 weeks, versus placebo): the same or better clinical status | ADAS-cog change from baseline, cognitive function (FIG. 2) ([3]; APOE4+ individuals, all three treatment arms, after 24 weeks): finish with a clinical decline | ADAS-cog change from baseline (FIG. 3) ([3]; APOE4 heterozygotes, higher doses (4, 8 mg), course of the study): remained close to the baseline | ADAS-cog change from baseline (FIG. 3) ([3]; APOE4 homozygotes, all treated): experienced a clinical decline | ADAS-cog change from baseline, cognitive function (FIG. 2) ([3]; APOE4− individuals, 2 mg, 4 mg or 8 mg, all time points (8, 16 and 24 weeks)): marked improvement | ADAS-cog Treatment Difference (95% confidence limits) Rosi − Placebo ([3]; 2 mg): 0.25 (−1.19, 1.68) | ADAS-cog model adjusted change from baseline, LSMean (SE) ([3]; 2 mg once daily extended release): −0.2 (0.54) | ADAS-cog Treatment Difference (95% confidence limits) Rosi − Placebo ([3]; 4 mg): −0.46 (−1.90, 0.97) | ADAS-cog model adjusted change from baseline, LSMean (SE) ([3]; 4 mg once daily extended release): −0.9 (0.54) | ADAS-cog Treatment Difference (95% confidence limits) Rosi − Placebo ([3]; 8 mg): −0.27 (−1.70, 1.16) | ADAS-cog model adjusted change from baseline, LSMean (SE) ([3]; 8 mg once daily extended release): −0.7 (0.53) | ADAS-cog Treatment Difference (90% confidence limits) Rosi − Placebo ([3]; 0 APOE4 copies, 2 mg): −2.39 (−4.43, −0.36) | ADAS-cog model-adjusted change from baseline, LSMean (SE) ([3]; 0 APOE4 copies, 2 mg): −1.38 (0.90) | ADAS-cog Treatment Difference (90% confidence limits) Rosi − Placebo ([3]; 0 APOE4 copies, 4 mg): −2.26 (−4.32, −0.20) | ADAS-cog model-adjusted change from baseline, LSMean (SE) ([3]; 0 APOE4 copies, 4 mg): −1.25 (0.90) | ADAS-cog Treatment Difference (90% confidence limits) Rosi − Placebo ([3]; 0 APOE4 copies, 8 mg): −2.86 (−4.98, −0.74) | ADAS-cog model-adjusted change from baseline, LSMean (SE) ([3]; 0 APOE4 copies, 8 mg): −1.85 (0.94) | ADAS-cog Treatment Difference (90% confidence limits) Rosi − Placebo ([3]; 0 APOE4 copies, 8 mg, listed as rosiglitazone): −2.86 | ADAS-cog Treatment Difference (90% confidence limits) Rosi − Placebo ([3]; 1 APOE4 copy, 2 mg): 2.59 (0.10, 5.08) | ADAS-cog model-adjusted change from baseline, LSMean (SE) ([3]; 1 APOE4 copy, 2 mg): 2.02 (1.10) | ADAS-cog Treatment Difference (90% confidence limits) Rosi − Placebo ([3]; 1 APOE4 copy, 4 mg): 0.36 (−2.18, 2.90) | ADAS-cog model-adjusted change from baseline, LSMean (SE) ([3]; 1 APOE4 copy, 4 mg): −0.21 (1.15) | ADAS-cog Treatment Difference (90% confidence limits) Rosi − Placebo ([3]; 1 APOE4 copy, 8 mg): 0.23 (−2.42, 2.87) | ADAS-cog model-adjusted change from baseline, LSMean (SE) ([3]; 1 APOE4 copy, 8 mg): −0.34 (1.25) | ADAS-cog Treatment Difference (90% confidence limits) Rosi − Placebo ([3]; 2 APOE4 copies, 2 mg): 10.26 (3.64, 16.87) | ADAS-cog model-adjusted change from baseline, LSMean (SE) ([3]; 2 APOE4 copies, 2 mg): 5.67 (2.98) | ADAS-cog Treatment Difference (90% confidence limits) Rosi − Placebo ([3]; 2 APOE4 copies, 4 mg): 7.75 (1.79, 13.71) | ADAS-cog model-adjusted change from baseline, LSMean (SE) ([3]; 2 APOE4 copies, 4 mg): 3.16 (2.44) | ADAS-cog Treatment Difference (90% confidence limits) Rosi − Placebo ([3]; 2 APOE4 copies, 8 mg): 6.50 (1.28, 11.71) | ADAS-cog model-adjusted change from baseline, LSMean (SE) ([3]; 2 APOE4 copies, 8 mg): 1.91 (1.73) | NPI scores, pattern of results ([4]; APOE4+ subjects): demonstrated no improvement | NPI scores, pattern of results ([4]; APOE4− subjects): demonstrated improvement on NPI
